Measurements: patent publication US10688080B2, “Compositions, methods of use, and methods of treatment” (priority 2016, dated 2020)
pKi: −log10 of the molar value.

What was measured:
KPC-2 = target: T1, KPC-2 (Klebsiella pneumoniae, UniProt Q9F663); assay: Steady-state kinetic nitrocefin hydrolysis inhibition, KPC-2; assay type: biochemical
T1 construct: made in house; host or cells: bacteria, IPTG-induced
Description: For His tag KPC-2 beta-lactamase, bacteria were grown overnight at 30 C with shaking in 50 mL LB broth supplemented with 50 μg/mL kanamycin. Two liters of LB broth supplemented with 50 μg/mL kanamycin, 200 mM sorbitol, and 5 mM betaine were each inoculated with 10 mL of overnight bacterial culture. Cultures were then grown at 37 C until an optical density at 600 nm (OD600) of 0.6-0.7. Protein expression was then initiated by the addition of IPTG (final concentration 0.5 mM), followed by growth for 16 hr at 20 C. Cells were pelleted by centrifugation and stored at −80 C until further use. The his tag KPC-2 beta-lactamase was purified by nickel affinity chromatography and gel filtration. Briefly, the cell pellets were thawed and re-suspended in 40 mL of buffer A (20 mM Tris-HCl pH 8.0, 300 mM NaCl, 20 mM imidazole) with one complete protease inhibitor cocktail tablet (Roche) and disrupted by sonication, followed by ultracentrifugation to clarify the lysate. After ultracentrifugation, the supernatant was passed through a 0.22 μm filter before loading onto a 5 mL HisTrap HP affinity column (GE Healthcare Life Sciences, USA) pre-equilibrated with buffer A. His tag KPC-2 was eluted by a linear imidazole gradient (20 mM to 500 mM). Fractions were analyzed by SDS-PAGE. Fractions containing his tag KPC-2 were concentrated using a 10 k NMWL Amicon Ultra-15 Centrifugal Filter Unit. Concentrated his tag KPC-2 was then loaded onto a superdex 75 gel filtration column (GE Healthcare Life Sciences) pre-equilibrated with 20 mM Tris-HCl pH 8.0, 300 mM NaCl. Protein concentration was determined by absorbance at 280 using an extinction coefficient of 39,545.
(§1) Steady-state kinetic parameters were determined by using a Biotek Cytation 5 Cell Imaging Multi-Mode Reader. For KPC-2 and CTX M-14, each assay was performed in 100 mM Tris-HCl pH 7.0, 0.01% Triton X-100 at 37 C. Vmax and Km were determined from initial steady-state velocities from nitrocefin read at a wavelength of 486 nm. The kinetic parameters were obtained using the non-linear portion of the data to the Henri-Michaelis (equation 1) using Gera version 2.07. V=Vmax[S]/(Km+[S]) (Equation 1)
(§2) IC50, defined as the inhibitor concentration that results in a 50% reduction of nitrocefin (20 μM for KPC-2 and 50 μM for CTX M-14) hydrolysis was determined by measurements of initial velocities after mixing 1 nM of KPC-2 or CTX M-14 with increasing concentrations of inhibitors. The inhibition constant (Ki) was calculated according to equation 2: Ki=IC50/([S]/Km+1) (Equation 2)

NDM-1 = target: T2, NDM-1 (Klebsiella pneumoniae, UniProt C7C422); assay: Steady-state kinetic nitrocefin hydrolysis inhibition, NDM-1; assay type: biochemical; conditions: for pKi: nitrocefin 10 μM, 1 μM ZnSO4, Ki=IC50/([S]/Km+1)
T2 construct: SUMO tag (cleaved yes); made in house; host or cells: bacteria, IPTG-induced
T2 sequence (C7C422 29-270, looked up, species assumed): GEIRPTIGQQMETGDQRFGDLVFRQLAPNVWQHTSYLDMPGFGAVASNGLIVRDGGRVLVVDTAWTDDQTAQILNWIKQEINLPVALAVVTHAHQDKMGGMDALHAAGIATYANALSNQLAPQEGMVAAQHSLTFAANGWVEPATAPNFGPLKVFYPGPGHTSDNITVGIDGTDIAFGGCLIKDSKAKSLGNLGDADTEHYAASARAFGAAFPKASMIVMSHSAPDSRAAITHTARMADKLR
Description: For sumo tag NDM-1 metallo-beta-lactamase, bacteria were grown overnight at 30 C with shaking in 50 mL LB broth supplemented with 100 μg/mL ampicillin. Two liters of LB broth supplemented with 100 μg/mL ampicillin were each inoculated with 10 mL of overnight bacterial culture. Cultures were then grown at 37 C until an optical density at 600 nm (OD600) of 0.6-0.7. Protein expression was then initiated by the addition of IPTG (final concentration 0.5 mM), followed by growth for 16 hr at 20 C. Cells were pelleted by centrifugation and stored at −80 C until further use. The sumo tag NDM-1 beta-lactamase was purified by nickel affinity chromatography and gel filtration. Briefly, the cell pellets were thawed and re-suspended in 40 mL of buffer A (20 mM HEPES pH 7.4, 0.5 M NaCl, 20 mM imidazole) with one complete protease inhibitor cocktail tablet (Roche) and disrupted by sonication, followed by ultracentrifugation to clarify the lysate. After ultracentrifugation, the supernatant was passed through a 0.22 μm filter before loading onto a 5 mL HisTrap HP affinity column (GE Healthcare Life Sciences, USA) pre-equilibrated with buffer A. Sumo tag NDM-1 was eluted by a linear imidazole gradient (20 mM to 500 mM). Fractions were analyzed by SDS-PAGE. Fractions containing sumo tag NDM-1 were buffer exchanged into 20 mM HEPES pH 7.0, 100 mM NaCl. Cleavage of the sumo tag was then carried out with ULP1 protease overnight at room temperature and then concentrated using a 10 k NMWL Amicon Ultra-15 Centrifugal Filter Unit. The sample was then loaded back onto a nickel affinity column and the flow through was collected, containing the untagged NDM-1. NDM-1 was concentrated and loaded onto a gel filtration column (GE Healthcare Life Sciences) pre-equilibrated with 20 mM HEPES pH 7.0, 100 mM NaCl. Protein concentration was determined by absorbance at 280 using an extinction coefficient of 27,960.
as §1, §2
For NDM-1, the procedures were the same as above except the assay was performed in 100 mM Tris-HCl pH 7.0, 1 μM ZnSO4, 0.01% Triton X-100. In addition, a nitrocefin concentration of 10 μM was used.

CTX-M14 = CTX-M14 (Escherichia coli, UniProt Q9L5C7); assay: Steady-state kinetic nitrocefin hydrolysis inhibition, CTX-M14; assay type: biochemical; conditions: for pKi: nitrocefin 50 μM, 1 nM enzyme, Ki=IC50/([S]/Km+1)
Sequence of CTX-M14 (Q9L5C7 29-291, species assumed): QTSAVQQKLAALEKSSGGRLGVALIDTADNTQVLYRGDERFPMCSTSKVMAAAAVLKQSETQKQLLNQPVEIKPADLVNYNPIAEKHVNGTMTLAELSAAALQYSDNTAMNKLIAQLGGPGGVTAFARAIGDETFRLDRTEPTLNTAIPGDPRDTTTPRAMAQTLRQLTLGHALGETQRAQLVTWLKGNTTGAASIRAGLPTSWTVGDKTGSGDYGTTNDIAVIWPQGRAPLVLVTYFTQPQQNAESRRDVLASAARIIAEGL
Description: as §1, §2

OXA-48 = OXA-48 (Klebsiella pneumoniae, UniProt Q6XEC0); assay: Steady-state kinetic β-lactamase inhibition, OXA-48; assay type: biochemical; conditions: read-out: OXA-48 % inhibition at stated concentration
Sequence of OXA-48 (Q6XEC0 23-265 limits assumed): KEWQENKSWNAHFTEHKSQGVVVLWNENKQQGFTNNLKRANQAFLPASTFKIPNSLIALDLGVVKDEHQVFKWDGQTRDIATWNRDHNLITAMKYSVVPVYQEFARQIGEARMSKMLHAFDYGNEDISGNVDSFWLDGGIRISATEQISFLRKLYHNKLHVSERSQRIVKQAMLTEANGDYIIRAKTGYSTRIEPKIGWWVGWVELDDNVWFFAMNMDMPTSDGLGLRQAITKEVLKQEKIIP

SHV-2 = SHV-2 (Klebsiella pneumoniae, UniProt P0A9Z8); assay: Steady-state kinetic β-lactamase inhibition, SHV-2; assay type: biochemical
Sequence of SHV-2 (P0A9Z8 22-286): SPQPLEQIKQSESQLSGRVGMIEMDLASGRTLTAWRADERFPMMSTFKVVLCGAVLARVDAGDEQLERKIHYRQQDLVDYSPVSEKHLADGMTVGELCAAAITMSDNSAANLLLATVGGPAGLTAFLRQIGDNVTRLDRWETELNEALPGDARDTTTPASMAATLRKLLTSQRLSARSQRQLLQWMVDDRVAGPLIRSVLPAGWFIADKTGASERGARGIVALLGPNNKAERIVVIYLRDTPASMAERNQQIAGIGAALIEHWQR

[1] = test system: BL21(DE3) E. coli expressing KPC-2; assay: MIC studies, synergy with imipenem (broth microdilution); assay type: cell-based; conditions: Escherichia coli, 24 h, read-out: MIC of imipenem
Description: Compounds were tested for synergy with the carbapenem antibiotic, imipenem, against BL21(DE3) E. coli expressing KPC-2. MIC values were determined with the Mueller-Hinton broth microdilution method. To test for inhibitory activity, compounds were dissolved in DMSO and dilutions were carried out using LB broth. Compounds were test at 100 μM with increasing concentrations of imipenem. […] After inoculation, the plates are incubated at 37 C for 24 hours. The MIC of the compounds are then determined visually.

T1 sequence (Q9F663 25-293 limits assumed): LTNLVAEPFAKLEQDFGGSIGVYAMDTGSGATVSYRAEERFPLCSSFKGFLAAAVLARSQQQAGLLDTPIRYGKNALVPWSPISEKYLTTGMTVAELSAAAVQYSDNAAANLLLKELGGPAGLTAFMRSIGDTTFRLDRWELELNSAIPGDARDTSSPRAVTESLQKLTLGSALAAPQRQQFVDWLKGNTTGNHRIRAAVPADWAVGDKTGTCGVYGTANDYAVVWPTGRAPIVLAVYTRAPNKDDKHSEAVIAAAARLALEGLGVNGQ

CC1(C(=O)Nc2nnn[nH]2)CN(C(=O)c2cccc(C(F)(F)F)c2)c2ccccc21 (centres unmarked) [Compound 31]
pKi (KPC-2): 3.45 | pKi (NDM-1): 3.70

CC(c1cccc(C(F)(F)F)c1)n1cc(C(=O)Nc2nnn[nH]2)c2ccccc21 (centres unmarked) [Compound 29]
KPC-2 % inhibition at stated concentration (KPC-2; at 1900 (uM)): 50% at 1900 | CTX-M14 % inhibition at stated concentration (CTX-M14; at 1900 (uM)): 50% at 1900

O=C(Nc1nnn[nH]1)[C@H]1CCN(S(=O)(=O)c2cccc(C(F)(F)F)c2)C1 [Compound 39]
pKi (KPC-2): 2.82 | NDM-1 % inhibition at stated concentration (NDM-1; at 1800 (uM)): 10% at 1800 | pKi (CTX-M14): 2.70

CC(=O)N1CC(C)(C(=O)Nc2nnn[nH]2)c2ccccc21 (centres unmarked) [Compound 32]
inhibition at 3900 µM (OXA-48): 16% | KPC-2 % inhibition at stated concentration (KPC-2; at 4800 (uM)): 40% at 4800 | pKi (NDM-1): 3.81 | CTX-M14 % inhibition at stated concentration (CTX-M14; at 4800 (uM)): 10% at 4800

CC1(C(=O)Nc2nnn[nH]2)CN(S(C)(=O)=O)c2ccccc21 (centres unmarked) [Compound 33]
inhibition at 3900 µM (OXA-48): 20% | pKi (KPC-2): 2.57 | pKi (NDM-1): 3.79

O=C(Nc1nnn[nH]1)c1c[nH]c2ccccc12 [Compound 30]
pKi (KPC-2): 2.52 | pKi (NDM-1): 3.45

O=C(Nc1nnn[nH]1)[C@@H]1CCN(C(=O)c2cccc(C(F)(F)F)c2)C1 [Compound 36]
pKi (KPC-2): 2.70 | pKi (NDM-1): 4.32 | pKi (CTX-M14): 2.53

O=C(Nc1nnn[nH]1)C(Sc1ccccc1)c1ccccc1 (centres unmarked) [Compound 22, 2-phenyl-2-(phenylthio)-N-(1H-tetrazol-5-yl)acetamide]
pKi (KPC-2): 4.58 | pKi (NDM-1): 4.24

O=C(Nc1nnn[nH]1)[C@@H]1CCN(S(=O)(=O)c2cccc(C(F)(F)F)c2)C1 [Compound 37]
pKi (KPC-2): 3.33 | NDM-1 % inhibition at stated concentration (NDM-1; at 1800 (uM)): 30% at 1800 | pKi (CTX-M14): 3.00

O=C(Nc1nnn[nH]1)[C@H]1CCN(C(=O)c2cccc(C(F)(F)F)c2)C1 [Compound 38]
pKi (KPC-2): 2.70 | NDM-1 % inhibition at stated concentration (NDM-1; at 3500 (uM)): 40% at 3500 | pKi (CTX-M14): 2.52

O=C(Nc1nc(C(=O)Nc2nnn[nH]2)c(-c2ccccc2)s1)c1ncco1 [Compound 35]
inhibition at 800 µM (OXA-48): 20%

O=C(Nc1nnn[nH]1)C1CN(C(=O)c2cccc(C(F)(F)F)c2)c2ccccc21 (centres unmarked) [Compound 2, N-(1H-tetrazol-5-yl)-1-(3-(trifluoromethyl)benzoyl)indoline-3-carboxamide]
pKi (KPC-2): 5.92 | pKi (NDM-1): 3.02

O=C(Nc1nc(C(=O)Nc2nnn[nH]2)c(-c2ccccc2)s1)c1ncc[nH]1.O=CO [Compound 34]
inhibition at 1600 µM (OXA-48): 35% | pKi (KPC-2): 3.95 | NDM-1 % inhibition at stated concentration (NDM-1; at 1000 (uM)): 20% at 1000

O=C(Nc1nnn[nH]1)[C@@H]1CCCN(C(=O)c2cccc(C(F)(F)F)c2)C1 [Compound 40]
inhibition at 4800 µM (OXA-48): 35% | pKi (KPC-2): 3.96 | NDM-1 % inhibition at stated concentration (NDM-1; at 1000 (uM)): 20% at 1000

O=C(CNc1ccccc1)Nc1nnn[nH]1 [Compound 42]
pKi (KPC-2): 2.92

O=C(Nc1nnn[nH]1)[C@@H]1CCCN(S(=O)(=O)c2cccc(C(F)(F)F)c2)C1 [Compound 9, (R)—N-(1H-tetrazol-5-yl)-1-((3-(trifluoromethyl)phenyl)sulfonyl)piperidine-3-carboxamide]
inhibition at 4800 µM (OXA-48): 20% | pKi (KPC-2): 4.11 | pKi (CTX-M14): 3.61

O=C(Nc1nnn[nH]1)C(Nc1ccccc1)c1ccccc1 (centres unmarked) [Compound 25, 2-phenyl-2-(phenylamino)-N-(1H-tetrazol-5-yl)acetamide]
inhibition at 5000 µM (OXA-48): 40% | pKi (KPC-2): 3.28 | pKi (NDM-1): 3.19

O=C(Nc1nnn[nH]1)c1cn(S(=O)(=O)c2cccc(C(F)(F)F)c2)c2ccccc12 [Compound 27]
pKi (KPC-2): 3.52

O=C(Nc1nc(C(=O)Nc2nnn[nH]2)c(-c2ccccc2)s1)c1nccs1 [Compound 6, N-(4-((1H-tetrazol-5-yl)carbamoyl)-5-phenylthiazol-2-yl)thiazole-2-carboxamide]
inhibition at 4800 µM (OXA-48): 50% | pKi (KPC-2): 4.59

O=C(N[C@H]1CCCCN(c2nnn[nH]2)C1=O)c1cc(C(F)(F)F)cc2nc[nH]c12.O=CO [Compound 21, (S)—N-(2-oxo-1-(1H-tetrazol-5-yl)azepan-3-yl)-5-(trifluoromethyl)-1H-benzo[d]imidazole-7-carboxamide formate]
KPC-2 % inhibition at stated concentration (KPC-2; at 1600 (uM)): 30% at 1600 | pKi (CTX-M14): 3.63 | pKi (SHV-2): 4.22

C[C@@H](O)[C@H]1C(=O)N2C(C(=O)O)=C(SCCN=CN)C[C@H]12 [Imipenem, imipenem]
MIC [1]: 2 µg/mL
